Laboratory results: US8124610B2, “Sodium channel inhibitors” (Icagen Inc., priority 2007, dated 2012)
Where two headings read alike, the source gives them in different places.

Assays:
hSCN3A = target: T1, hSCN3A (Homo sapiens, UniProt Q9NY46); assay: Whole-cell patch-clamp electrophysiology (conventional or PatchXpress), HEK cells expressing hSCN3A, estimated IC-50; type: cell-based; settings: read-out: SCN3A EIC-50
T1 construct: expressed in transfected cells
Procedure, shortened: (§1)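 Current through each channel was evoked by a 20 ms step to 0 mV following an 8 s conditioning prepulse at the cell's own half-inactivation voltage. Recordings used HEK lines stably expressing the channel, conventional or PatchXpress patch clamp, room temperature, pH 7.4 bath; inhibition taken as pre/post-compound amplitude change.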

hSCN9A = target: T2, hSCN9A (Homo sapiens, UniProt Q15858); assay: Whole-cell patch-clamp electrophysiology (conventional or PatchXpress), HEK cells expressing hSCN9A, estimated IC-50; type: cell-based; settings: read-out: SCN9A EIC-50
T2 construct: expressed in transfected cells
T2 sequence (Q15858 whole entry): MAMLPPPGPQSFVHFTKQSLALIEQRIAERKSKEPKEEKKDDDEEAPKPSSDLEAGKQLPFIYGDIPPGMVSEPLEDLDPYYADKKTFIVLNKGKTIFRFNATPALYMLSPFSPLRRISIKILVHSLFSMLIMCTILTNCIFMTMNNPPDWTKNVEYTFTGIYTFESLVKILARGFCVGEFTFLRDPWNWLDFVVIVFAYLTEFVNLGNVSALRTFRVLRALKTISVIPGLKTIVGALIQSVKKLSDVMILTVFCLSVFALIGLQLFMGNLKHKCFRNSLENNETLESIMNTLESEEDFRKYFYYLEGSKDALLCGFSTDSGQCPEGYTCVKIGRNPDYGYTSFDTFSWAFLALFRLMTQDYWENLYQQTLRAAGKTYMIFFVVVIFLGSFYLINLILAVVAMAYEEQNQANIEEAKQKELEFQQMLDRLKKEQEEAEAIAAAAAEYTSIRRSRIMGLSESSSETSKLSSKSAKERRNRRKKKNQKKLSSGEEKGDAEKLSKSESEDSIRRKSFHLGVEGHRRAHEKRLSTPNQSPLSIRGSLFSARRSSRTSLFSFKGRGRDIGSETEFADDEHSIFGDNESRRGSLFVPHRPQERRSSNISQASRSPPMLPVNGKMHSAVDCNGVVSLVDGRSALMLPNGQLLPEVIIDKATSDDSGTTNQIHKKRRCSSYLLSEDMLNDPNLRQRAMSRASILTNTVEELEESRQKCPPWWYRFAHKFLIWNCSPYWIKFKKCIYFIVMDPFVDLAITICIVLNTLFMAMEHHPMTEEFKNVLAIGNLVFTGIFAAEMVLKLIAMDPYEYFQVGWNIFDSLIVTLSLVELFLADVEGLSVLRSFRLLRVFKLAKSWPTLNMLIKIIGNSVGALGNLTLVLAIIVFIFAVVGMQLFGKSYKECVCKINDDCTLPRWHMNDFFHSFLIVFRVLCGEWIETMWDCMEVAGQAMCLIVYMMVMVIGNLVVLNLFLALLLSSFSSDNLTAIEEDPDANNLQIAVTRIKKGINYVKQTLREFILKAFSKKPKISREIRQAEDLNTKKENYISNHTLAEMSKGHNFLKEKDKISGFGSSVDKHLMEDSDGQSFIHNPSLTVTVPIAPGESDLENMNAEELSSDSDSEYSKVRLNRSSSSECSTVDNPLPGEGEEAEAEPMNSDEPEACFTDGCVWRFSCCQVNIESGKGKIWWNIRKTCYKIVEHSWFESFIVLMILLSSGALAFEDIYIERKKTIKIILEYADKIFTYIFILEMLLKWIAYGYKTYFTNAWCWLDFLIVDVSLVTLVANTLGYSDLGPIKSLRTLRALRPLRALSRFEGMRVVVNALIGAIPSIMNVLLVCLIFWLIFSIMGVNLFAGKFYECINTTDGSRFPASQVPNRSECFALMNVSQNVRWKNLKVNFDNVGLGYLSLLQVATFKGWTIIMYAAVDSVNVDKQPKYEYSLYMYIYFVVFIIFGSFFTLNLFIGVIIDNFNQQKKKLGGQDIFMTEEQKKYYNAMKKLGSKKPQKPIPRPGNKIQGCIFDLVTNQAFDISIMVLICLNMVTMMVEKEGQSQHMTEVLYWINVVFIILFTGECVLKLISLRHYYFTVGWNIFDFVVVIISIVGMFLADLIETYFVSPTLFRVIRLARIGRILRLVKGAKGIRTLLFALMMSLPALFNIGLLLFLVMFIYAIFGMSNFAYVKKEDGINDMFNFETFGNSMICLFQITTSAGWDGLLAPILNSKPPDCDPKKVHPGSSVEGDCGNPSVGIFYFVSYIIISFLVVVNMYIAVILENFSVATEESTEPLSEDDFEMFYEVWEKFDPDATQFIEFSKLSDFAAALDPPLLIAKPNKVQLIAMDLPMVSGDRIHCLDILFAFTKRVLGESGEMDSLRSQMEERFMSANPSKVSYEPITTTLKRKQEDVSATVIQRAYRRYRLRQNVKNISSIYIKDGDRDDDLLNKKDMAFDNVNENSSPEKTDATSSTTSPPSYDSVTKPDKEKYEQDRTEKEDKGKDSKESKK
Procedure, shortened: as §1

[1] = estimated IC-50, HEK cells expressing hSCN3A, class symbols or bounds
[2] = estimated IC-50, HEK cells expressing hSCN9A, class symbols or bounds
[3] = Table V, estimated IC-50 from single point electrophysiology, cells clamped at V1/2

T1 sequence (Q9NY46 whole entry): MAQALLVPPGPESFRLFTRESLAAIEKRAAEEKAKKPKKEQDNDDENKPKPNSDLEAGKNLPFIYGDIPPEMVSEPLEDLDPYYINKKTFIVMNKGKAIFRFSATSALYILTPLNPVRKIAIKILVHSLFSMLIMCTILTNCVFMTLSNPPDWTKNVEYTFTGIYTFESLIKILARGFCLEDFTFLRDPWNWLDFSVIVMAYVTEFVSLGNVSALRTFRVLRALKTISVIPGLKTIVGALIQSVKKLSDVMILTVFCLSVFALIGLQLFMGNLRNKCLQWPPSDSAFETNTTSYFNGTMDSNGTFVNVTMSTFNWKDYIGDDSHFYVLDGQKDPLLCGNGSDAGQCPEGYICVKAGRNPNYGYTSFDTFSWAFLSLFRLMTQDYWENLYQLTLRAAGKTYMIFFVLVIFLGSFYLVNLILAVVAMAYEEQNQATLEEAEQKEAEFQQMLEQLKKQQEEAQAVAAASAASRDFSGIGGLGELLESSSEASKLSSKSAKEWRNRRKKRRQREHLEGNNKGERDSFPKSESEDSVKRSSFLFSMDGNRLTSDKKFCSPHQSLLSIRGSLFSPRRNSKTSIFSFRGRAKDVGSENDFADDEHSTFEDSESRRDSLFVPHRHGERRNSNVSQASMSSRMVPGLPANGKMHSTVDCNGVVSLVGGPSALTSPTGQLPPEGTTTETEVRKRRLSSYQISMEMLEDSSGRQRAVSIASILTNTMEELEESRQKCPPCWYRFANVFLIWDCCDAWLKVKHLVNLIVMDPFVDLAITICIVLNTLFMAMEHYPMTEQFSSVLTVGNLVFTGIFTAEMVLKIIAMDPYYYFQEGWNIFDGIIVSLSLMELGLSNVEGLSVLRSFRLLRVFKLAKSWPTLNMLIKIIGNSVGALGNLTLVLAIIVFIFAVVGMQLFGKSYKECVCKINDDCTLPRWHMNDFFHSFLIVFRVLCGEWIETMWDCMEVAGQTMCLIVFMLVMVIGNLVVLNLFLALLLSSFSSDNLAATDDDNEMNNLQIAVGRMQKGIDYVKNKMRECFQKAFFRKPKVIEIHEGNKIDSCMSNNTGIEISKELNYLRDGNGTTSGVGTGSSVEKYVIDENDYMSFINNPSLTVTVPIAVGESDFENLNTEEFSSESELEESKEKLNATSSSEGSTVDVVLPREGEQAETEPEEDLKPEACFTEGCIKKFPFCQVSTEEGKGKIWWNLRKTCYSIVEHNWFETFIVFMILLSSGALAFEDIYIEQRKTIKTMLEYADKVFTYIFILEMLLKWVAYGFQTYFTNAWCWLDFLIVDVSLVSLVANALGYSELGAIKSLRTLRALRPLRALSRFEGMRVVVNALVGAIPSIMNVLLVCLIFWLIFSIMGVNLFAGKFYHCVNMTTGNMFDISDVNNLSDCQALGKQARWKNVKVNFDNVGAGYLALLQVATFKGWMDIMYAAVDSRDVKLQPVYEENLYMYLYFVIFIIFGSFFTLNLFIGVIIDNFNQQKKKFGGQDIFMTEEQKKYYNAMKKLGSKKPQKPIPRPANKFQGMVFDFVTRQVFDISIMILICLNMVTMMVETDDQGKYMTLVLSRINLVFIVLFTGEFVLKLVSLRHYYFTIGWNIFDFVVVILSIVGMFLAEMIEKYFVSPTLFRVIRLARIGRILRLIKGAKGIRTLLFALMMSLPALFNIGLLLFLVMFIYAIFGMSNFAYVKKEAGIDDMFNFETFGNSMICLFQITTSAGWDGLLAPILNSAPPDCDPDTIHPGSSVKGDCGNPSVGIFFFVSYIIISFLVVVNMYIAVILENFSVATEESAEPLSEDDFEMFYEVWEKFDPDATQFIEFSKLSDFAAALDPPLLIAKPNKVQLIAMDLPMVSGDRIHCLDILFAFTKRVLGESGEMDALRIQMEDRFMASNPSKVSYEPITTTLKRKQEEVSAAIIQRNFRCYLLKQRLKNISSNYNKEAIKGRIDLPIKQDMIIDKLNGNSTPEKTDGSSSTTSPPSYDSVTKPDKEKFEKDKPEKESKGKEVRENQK

Row | SMILES | IC50 (hSCN3A; [1]) [nM] | IC50 (hSCN9A; [2]) [nM] | IC50 (hSCN3A; [3]) [nM] | IC50 (hSCN9A; [3]) [nM]
1 | O=S(=O)(Nc1nccs1)c1ccc(Nc2nc(C(F)(F)F)cs2)cc1 [Compound 83, N-(thiazol-2-yl)-4-(4-(trifluoromethyl)thiazol-2-ylamino)benzenesulfonamide] | < 2000 | 2000 to 10000 | – | –
2 | O=S(=O)(Nc1nccs1)c1ccc(Nc2ccn(Cc3ccc(Cl)cc3F)n2)c(F)c1 [Compound 198, 4-(1-(4-chloro-2-fluorobenzyl)-1H-pyrazol-3-ylamino)-3-fluoro-N-(thiazol-2-yl)benzenesulfonamide] | < 2000 | < 2000 | – | –
3 | O=S(=O)(Nc1nccs1)c1ccc(Nc2cc(-c3ccccc3)nn2-c2ccccc2)cc1F [Compound 154, 4-(1,3-diphenyl-1H-pyrazol-5-ylamino)-2-fluoro-N-(thiazol-2-yl)benzenesulfonamide] | < 2000 | < 2000 | – | –
4 | N#Cc1cc(Nc2ccn(Cc3ccc(Cl)cc3)n2)ccc1S(=O)(=O)Nc1nccs1 [Compound 264, 4-(1-(4-chlorobenzyl)-1H-pyrazol-3-ylamino)-2-cyano-N-(thiazol-2-yl)benzenesulfonamide] | < 2000 | < 2000 | – | –
5 | COc1ccccc1-n1nc(C)cc1Nc1ccc(S(=O)(=O)Nc2nccs2)c(F)c1 [Compound 188, 2-fluoro-4-(1-(2-methoxyphenyl)-3-methyl-1H-pyrazol-5-ylamino)-N-(thiazol-2-yl)benzenesulfonamide] | < 2000 | < 2000 | – | –
6 | CC(C)(C)c1cc(Nc2ccc(S(=O)(=O)Nc3nccs3)c(F)c2)n(-c2ccccc2)n1 [Compound 156, 4-(3-tert-butyl-1-phenyl-1H-pyrazol-5-ylamino)-2-fluoro-N-(thiazol-2-yl)benzenesulfonamide] | < 2000 | < 2000 | – | –

Further lines, results first:

Row | IC50 (hSCN3A; [1]) [nM] | IC50 (hSCN9A; [2]) [nM] | IC50 (hSCN3A; [3]) [nM] | IC50 (hSCN9A; [3]) [nM] | SMILES
7 | – | – | < 2000 | < 2000 | Cc1cc(Nc2ccc(S(=O)(=O)Nc3nccs3)cc2F)n(-c2ccccc2)n1 [Compound 35, 3-fluoro-4-(3-methyl-1-phenyl-1H-pyrazol-5-ylamino)-N-(thiazol-2-yl)benzenesulfonamide]
8 | < 2000 | 2000 to 10000 | – | – | CN(C)c1ccc(CNCc2csc(Nc3ccc(S(=O)(=O)Nc4nccs4)cc3)n2)cc1 [Compound 73, 4-(4-((4-(dimethylamino)benzylamino)methyl)thiazol-2-ylamino)-N-(thiazol-2-yl)benzenesulfonamide]
9 | < 2000 | < 2000 | – | – | O=S(=O)(Nc1nccs1)c1ccc(Nc2nc(CNCCC(c3ccccc3)c3ccccc3)cs2)cc1 [Compound 61, 4-(4-((3,3-diphenylpropylamino)methyl)thiazol-2-ylamino)-N-(thiazol-2-yl)benzenesulfonamide]
10 | – | – | < 2000 | < 2000 | CC(C)(C)n1nc(Cc2ccc(Cl)cc2)cc1Nc1ccc(S(=O)(=O)Nc2nccs2)c(F)c1 [Compound 26, 4-(1-tert-butyl-3-(4-chlorobenzyl)-1H-pyrazol-5-ylamino)-2-fluoro-N-(thiazol-2-yl)benzenesulfonamide]
11 | – | – | < 2000 | < 2000 | Cn1nc(CC(C)(C)C)cc1Nc1ccc(S(=O)(=O)Nc2nccs2)c(F)c1 [Compound 34, 2-fluoro-4-(1-methyl-3-neopentyl-1H-pyrazol-5-ylamino)-N-(thiazol-2-yl)benzenesulfonamide]
12 | < 2000 | < 2000 | – | – | NC(=O)Cn1nc(Cc2ccc(Cl)cc2)cc1Nc1ccc(S(=O)(=O)Nc2nccs2)cc1 [Compound 155, 2-(3-(4-chlorobenzyl)-5-(4-(N-thiazol-2-ylsulfamoyl)phenylamino)-1H-pyrazol-1-yl)acetamide]
13 | – | – | < 2000 | < 2000 | O=S(=O)(Nc1nccs1)c1ccc(Nc2cnn(Cc3ccc(Cl)cc3)c2)cc1F [Compound 33, 4-(1-(4-chlorobenzyl)-1H-pyrazol-4-ylamino)-2-fluoro-N-(thiazol-2-yl)benzenesulfonamide]
14 | < 2000 | > 3000 | – | – | COC(=O)c1sc(Nc2ccc(S(=O)(=O)Nc3nccs3)cc2)nc1C [Compound 77, methyl 4-methyl-2-(4-(N-thiazol-2-ylsulfamoyl)phenylamino)thiazole-5-carboxylate]
